Test results taken from patent US6432952B1, “Polymorphic form of a tachykinin receptor antagonist” (Merck & Co., Inc., priority 1999, dated 2002).
Read-outs that look alike come from different tables or passages of the source.

How the values were obtained:
[1] = Solubility in isopropyl acetate; assay type: physicochemical
Description: Solubility The solubility of Form I of 2-(R)-(1-(R)-(3,5-bis(trifluoromethyl)-phenyl)ethoxy)-4-(5-(dimethylamino)methyl-1,2,3-triazol-4-yl)methyl-3-(S)-(4-fluorophenyl)morpholine hydrochloride in isopropyl acetate at 25° C. was determined to be 7.4±0.3 mg/ml.

[2] = Stability of the crystalline form as neat solid; assay type: physicochemical
[3] = tested on: retching and vomiting induced by cisplatin; assay: Ferret model of cisplatin-induced emesis (Tattersall et al.); assay type: in vivo

| SMILES | solubility [1] | solubility ([1]; 25 °C, organic solvent or mixture, solubility) | thermodynamic stability of Form I over Form II, from the ratio of the solubilities ([1]; at 25° C., isopropyl acetate) | thermodynamic stability relative to the other form ([2]; Form I versus Form II) | thermal stability ([2]; as a neat solid) | effect on retching and vomiting induced by cisplatin [3] |
| --- | --- | --- | --- | --- | --- | --- |
| C[C@@H](O[C@H]1OCCN(Cc2nn[nH]c2CN(C)C)[C@H]1c1ccc(F)cc1)c1cc(C(F)(F)F)cc(C(F)(F)F)c1.Cl [Form I, 2-(R)-(1-(R)-(3,5-bis(trifluoromethyl)phenyl)ethoxy)-4-(5-(dimethylamino)methyl-1,2,3-triazol-4-yl)methyl-3-(S)-(4-fluorophenyl)morpholine hydrochloride] | 10900 ± 1100 µg/mL | 7400 ± 300 µg/mL | approximately 0.2 kcal/mol | thermodynamically more stable than Form II | high degree of thermal stability |  |
| C[C@@H](O[C@H]1OCCN(Cc2nn[nH]c2CN(C)C)[C@H]1c1ccc(F)cc1)c1cc(C(F)(F)F)cc(C(F)(F)F)c1.Cl [compound of the present invention, 2-(R)-(1-(R)-(3,5-bis(trifluoromethyl)phenyl)ethoxy)-4-(5-(dimethylamino)methyl-1,2,3-triazol-4-yl)methyl-3-(S)-(4-fluorophenyl)-morpholine hydrochloride] |  |  |  |  |  | attenuate the retching and vomiting induced by cisplatin |
